Blank lines part the entries; values can stand above or below the molecule they belong to.
What was measured:
[1] = target: T1, NBD1 (Homo sapiens, UniProt P13569); assay: Aggregation analysis using differential static light scattering (DSLS), thermal stability of NBD1 (ΔTagg); format: binding; settings: ΔTagg versus DMSO control, NBD1 0.2 mg/ml
T1 construct: Purified recombinant NBD1 was produced using previously described methods; made in house
Outline: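 Read-out is ΔTagg: the aggregation temperature, taken at the inflection of the light-scattering curve, less the average of DMSO control wells. Recombinant NBD1 (0.2 mg/ml, pH7.6 buffer containing 2 mM ATP) with test compound was heated at 1° C. per minute up to 70° C.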

[2] = target: T2, CFTR (Homo sapiens, UniProt P13569, DEL508-508); assay: TECC24 AUC fold over DMSO @10 μM, CFTR-mediated transepithelial chloride transport in CF-HBE cells; format: cell-based; settings: test agent AUC divided by DMSO vehicle AUC, primary CF-HBE cells, ΔF508 homozygous donor, 48 hours incubation
T2 construct: Primary human bronchial epithelial cells from a ΔF508 homozygous CF donor; host or cells: primary human bronchial epithelial cells (CF-HBE), ΔF508 homozygous donor
T2 sequence (P13569 with tags, fused parts or gaps DEL508-508): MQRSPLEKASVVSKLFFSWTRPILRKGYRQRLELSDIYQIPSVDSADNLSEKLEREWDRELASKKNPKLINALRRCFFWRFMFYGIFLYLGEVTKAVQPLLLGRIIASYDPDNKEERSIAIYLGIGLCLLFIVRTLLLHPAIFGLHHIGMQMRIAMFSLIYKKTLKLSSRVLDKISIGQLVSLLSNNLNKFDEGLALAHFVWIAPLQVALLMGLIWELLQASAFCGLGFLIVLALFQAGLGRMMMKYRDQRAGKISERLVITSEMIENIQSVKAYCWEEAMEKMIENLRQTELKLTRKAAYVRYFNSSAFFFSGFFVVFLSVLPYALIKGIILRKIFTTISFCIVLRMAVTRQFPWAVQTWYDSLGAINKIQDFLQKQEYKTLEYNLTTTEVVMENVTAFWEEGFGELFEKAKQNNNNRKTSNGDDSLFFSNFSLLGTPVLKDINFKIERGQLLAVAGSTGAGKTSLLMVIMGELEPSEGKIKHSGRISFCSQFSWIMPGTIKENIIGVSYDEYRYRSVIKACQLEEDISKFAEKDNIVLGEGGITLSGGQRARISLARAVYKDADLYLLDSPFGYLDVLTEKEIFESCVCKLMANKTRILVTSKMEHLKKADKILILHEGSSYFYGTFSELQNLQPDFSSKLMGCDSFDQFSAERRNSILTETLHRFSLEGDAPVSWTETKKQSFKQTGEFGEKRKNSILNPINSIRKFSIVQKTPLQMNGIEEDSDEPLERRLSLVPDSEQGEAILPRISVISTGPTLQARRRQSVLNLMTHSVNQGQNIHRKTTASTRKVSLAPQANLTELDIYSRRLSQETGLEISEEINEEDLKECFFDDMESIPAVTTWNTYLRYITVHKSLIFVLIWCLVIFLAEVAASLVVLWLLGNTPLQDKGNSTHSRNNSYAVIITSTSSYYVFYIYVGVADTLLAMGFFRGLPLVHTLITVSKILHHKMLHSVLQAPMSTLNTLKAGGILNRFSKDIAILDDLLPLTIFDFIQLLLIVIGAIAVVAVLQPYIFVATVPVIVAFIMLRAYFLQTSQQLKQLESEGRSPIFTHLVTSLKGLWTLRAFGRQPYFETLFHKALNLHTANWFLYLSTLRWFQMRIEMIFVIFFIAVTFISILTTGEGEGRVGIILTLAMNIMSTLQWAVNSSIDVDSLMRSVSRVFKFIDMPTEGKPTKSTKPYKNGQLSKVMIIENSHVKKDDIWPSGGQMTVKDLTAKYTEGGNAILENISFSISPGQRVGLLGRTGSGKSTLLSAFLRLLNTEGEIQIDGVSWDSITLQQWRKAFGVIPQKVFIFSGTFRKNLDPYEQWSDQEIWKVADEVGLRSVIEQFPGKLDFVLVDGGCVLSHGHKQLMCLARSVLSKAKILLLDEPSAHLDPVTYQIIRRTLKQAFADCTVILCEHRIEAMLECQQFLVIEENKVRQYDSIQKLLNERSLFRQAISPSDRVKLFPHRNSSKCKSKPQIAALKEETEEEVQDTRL
Outline: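 Primary ΔF508-homozygous CF bronchial epithelial cells on inserts were incubated 48 h at 36.5 °C with compound in IL-13-containing medium. VT and TEER were then recorded in current-clamp mode (pH 7.4 HEPES bath) with benzamil 10 μM, forskolin 10 μM, then CFTR inhibitor-172 20 μM. The IEQ AUC between forskolin and inhibitor was divided by vehicle AUC.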

T1 sequence (P13569 423-646 limits assumed): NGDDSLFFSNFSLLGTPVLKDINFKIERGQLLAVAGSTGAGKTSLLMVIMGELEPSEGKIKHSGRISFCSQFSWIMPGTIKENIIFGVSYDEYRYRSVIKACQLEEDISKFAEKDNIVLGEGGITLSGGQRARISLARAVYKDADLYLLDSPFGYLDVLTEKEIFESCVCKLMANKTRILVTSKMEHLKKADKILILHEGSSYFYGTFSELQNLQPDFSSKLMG

SMILES: C[C@H](Cc1cccc([C@@]2(C)CCCC(C)(C)CS(=O)(=O)CCc3c(c(F)cc4[nH]ccc34)Oc3cncc(c3)-c3nc2nn3C)c1)C(=O)O [Compound 202, (2R)-3-[3-[(6R)-22-fluoro-3,6,10,10-tetramethyl-12,12-dioxo-24-oxa-12λ6-thia-3,4,19,27,30-pentazapentacyclo[23.3.1.12,5.015,23.016,20]triaconta-1(29),2(30),4,15,17,20,22,25,27-nonaen-6-yl]phenyl]-2-methyl-propanoic Acid]
DSLS 3D (100 μM ΔT) [1]: C (a value greater than 10 °C and less than or equal to 25 °C is marked “C”)
TECC (AUC, 10 μM) [2]: C (a value between 20 and 80 is marked “C”)

TECC (AUC, 10 μM) [2]: B (a value between 12-20 is marked “B”)
SMILES: C[C@H](Cc1cccc([C@@]2(C)CCCC(C)(C)CS(=O)(=O)CCc3c(c(F)c(F)c4[nH]ccc34)Oc3ccnc(c3)-c3nc2nn3C)c1)C(=O)O [Compound 221, (2R)-3-[3-[(6R)-21,22-difluoro-3,6,10,10-tetramethyl-12,12-dioxo-24-oxa-12λ6-thia-3,4,19,28,30-pentazapentacyclo[23.3.1.12,5.015,23.016,20]triaconta-1(29),2(30),4,15,17,20,22,25,27-nonaen-6-yl]phenyl]-2-methyl-propanoic Acid]
DSLS 3D (100 μM ΔT) [1]: C (a value greater than 10 °C and less than or equal to 25 °C is marked “C”)

SMILES: Cn1nc2nc1-c1cc(ccn1)Oc1c(F)cc3[nH]ccc3c1CCS(=O)(=O)CC(C)(C)CCC[C@]2(C)c1cccc(CC(=O)O)c1 [Compound 226, 2-[3-[(6R)-22-Fluoro-3,6,10,10-tetramethyl-12,12-dioxo-24-oxa-12λ6-thia-3,4,19,28,30-pentazapentacyclo[23.3.1.12,5.015,23.016,20]triaconta-1(29),2(30),4,15,17,20,22,25,27-nonaen-6-yl]phenyl]acetic Acid]
DSLS 3D (100 μM ΔT) [1]: C (a value greater than 10 °C and less than or equal to 25 °C is marked “C”)
TECC (AUC, 10 μM) [2]: C (a value between 20 and 80 is marked “C”)

TECC (AUC, 10 μM) [2]: B (a value between 12-20 is marked “B”)
SMILES: Cn1nc2nc1-c1cc(ccn1)Oc1c(F)cc3[nH]ccc3c1CCS(=O)(=O)CC(C)(C)CCC[C@]2(C)c1cccc(CCO)c1 [Compound 227, 2-[3-[(6R)-22-Fluoro-3,6,10,10-tetramethyl-12,12-dioxo-24-oxa-12λ6-thia-3,4,19,28,30-pentazapentacyclo[23.3.1.12,5.015,23.016,20]triaconta-1(29),2(30),4,15,17,20,22,25,27-nonaen-6-yl]phenyl]ethanol]
DSLS 3D (100 μM ΔT) [1]: C (a value greater than 10 °C and less than or equal to 25 °C is marked “C”)

SMILES: C[C@@H](Cc1cccc([C@@]2(C)CCCC(C)(C)CS(=O)(=O)CCc3c(c(F)cc4[nH]ccc34)[S+]([O-])c3ccnc(c3)-c3nc2co3)c1)C(=O)O (stereo partly drawn) [Compound 229, (2S)-3-[3-[(6R)-22-Fluoro-6,10,10-trimethyl-12,12,24-trioxo-3-oxa-12λ6,24λ4-dithia-19,28,30-triazapentacyclo[23.3.1.12,5.015,23.016,20]triaconta-1(29),2(30),4,15,17,20,22,25,27-nonaen-6-yl]phenyl]-2-methyl-propanoic Acid]
DSLS 3D (100 μM ΔT) [1]: C (a value greater than 10 °C and less than or equal to 25 °C is marked “C”)
TECC (AUC, 10 μM) [2]: C (a value between 20 and 80 is marked “C”)

SMILES: C[C@H](Cc1cccc([C@@]2(C)CCCC(C)(C)CS(=O)(=O)CCc3c(c(F)cc4[nH]ccc34)[S+]([O-])c3ccnc(c3)-c3nc2nn3C)c1)C(=O)O (stereo partly drawn) [Compound 231, (2R)-3-[3-[(6R)-22-Fluoro-3,6,10,10-tetramethyl-12,12,24-trioxo-12λ6,24λ4-dithia-3,4,19,28,30-pentazapentacyclo[23.3.1.12,5.015,23.016,20]triaconta-1(29),2(30),4,15,17,20,22,25,27-nonaen-6-yl]phenyl]-2-methyl-propanoic Acid]
DSLS 3D (100 μM ΔT) [1]: C (a value greater than 10 °C and less than or equal to 25 °C is marked “C”)
TECC (AUC, 10 μM) [2]: C (a value between 20 and 80 is marked “C”)

Reference: patent US12649750B2, “Macrocyclic compounds, compositions, and methods of using thereof” (Sionna Therapeutics Inc., priority 2022, dated 2026)
